Data as given in patent publication US20050079604A1, “Method for improving functionality of tissue constructs” (priority 2001, published 2005).

Tests used:
[1] = test system: reconstructed human vascular media (RHVM); assay: Contraction of RHVM rings in response to cumulative doses of histamine (myograph, isometric tension); format: cell-based; settings: 21 days of maturation, FIG. 9
Method: (§1) Reconstructed human vascular media (RHVM) were prepared for the control tissue construct (not aligned) as described in Example I. The RHVM used for this example were treated as follow: RHVM cultured in medium described above represent the control condition (non-treated RHVM) and RHVM supplemented with cell proliferation inhibitors, heparin or olomoucine (treated RHVM).
To assess the contractile function of RHVM which were treated or not (control condition), RHVM rings of 5-7 mm in length were removed from the tubular support used for culture after 21 days of maturation. Rings were mounted in a myograph and challenged in the presence of cumulative doses of histamine, a vasoactive agent. Isometric tension generated by RHVM contraction was directly recorded via a force transducer (Kilster-Morse, DSG BE4).

[2] = test system: smooth muscle cells present in reconstructed human vascular media; assay: Immunolabeled differentiation markers of smooth muscle cells in RHVM; format: cell-based; settings: FIG. 10
Method: as §1

## heparin
[1]; higher doses of histamine, 10^−5 and 10^−4 M
  contraction of RHVM cultured with the cell proliferation inhibitor vs control RHVM: significantly greater contraction
[1]; low dose of histamine (10^−6 M)
  contraction of RHVM cultured with the cell proliferation inhibitor vs non-treated RHVM: no significant difference of contraction
[2]
  expression of differentiation markers in cells cultured with the inhibitor vs without: increased
